19 compounds from PMC6522510 (Nature Communications, 2019) can be followed below.

Test [1] relates to MOLM-13. Nature of the test: Secondary dose-response HTS, Cell Titer Glo. In kind it is cell-based, human. To be noted: Homo sapiens; secondary high-throughput screen; MOLM-13; read-out: average effective concentration, MOLM-13. For orientation: In ATP-based viability assays light output follows the ATP content of the culture.
For another test, the system named is ML2. Nature of the test: Secondary dose-response HTS, Cell Titer Glo. In kind it is cell-based, human. To be noted: Homo sapiens; secondary high-throughput screen; ML-2; read-out: average effective concentration, ML-2.
Test [2] has as its system MV4-11. Description: cells. Also on record: species or system AML cell lines (8); Secondary HTS, 10-point dose-response in triplicate, Cell Titer Glo viability, four-parameter fit EC50. Conditions: Homo sapiens, MV4-11, 72 h, read-out: MV4-11.
For test [3], the system named is CHRF288-11. Description: cells. To be noted: 72 h, read-out: CHRF288-11. Also on record: species or system AML cell lines (8); Secondary HTS, 10-point dose-response in triplicate, Cell Titer Glo viability, four-parameter fit EC50.
The subject of a further test is CMK. Nature of the test: cells. Also on record: species or system AML cell lines (8); Secondary HTS, 10-point dose-response in triplicate, Cell Titer Glo viability, four-parameter fit EC50. Conditions: Homo sapiens, CMK, 72 h, read-out: CMK.
The next test has as its system CMS. Nature of the test: cells. Also noted: species or system AML cell lines (8); Secondary HTS, 10-point dose-response in triplicate, Cell Titer Glo viability, four-parameter fit EC50. Conditions: 72 h, read-out: CMS.
For a further test, the system named is M07e. Nature of the test: cells. Also noted: species or system AML cell lines (8); Secondary HTS, 10-point dose-response in triplicate, Cell Titer Glo viability, four-parameter fit EC50. To be noted: M-07e, 72 h, read-out: M07e.
Test [4] concerns U937. Description: cells. Also noted: species or system AML cell lines (8); Secondary HTS, 10-point dose-response in triplicate, Cell Titer Glo viability, four-parameter fit EC50. Conditions: Homo sapiens, U-937, 72 h, read-out: U937.
The subject of test [5] is MV4-11. Nature of the test: Secondary dose-response HTS, Cell Titer Glo. Type of test: cell-based, human. To be noted: Homo sapiens; secondary high-throughput screen; MV4-11; read-out: average effective concentration, MV4-11.
The test system of test [6] is CHRF288-11. Description: Secondary dose-response HTS, Cell Titer Glo. Type of test: cell-based, human. To be noted: Homo sapiens, HTS; secondary high-throughput screen; CHRF288-11; read-out: average effective concentration, CHRF288-11.
The test system of test [7] is U937. Description: Secondary dose-response HTS, Cell Titer Glo. Conditions: Homo sapiens, U-937; secondary high-throughput screen; U937; read-out: average effective concentration, U937. In kind it is cell-based, human.
In test [8] the test system is MOLM-13. Nature of the test: cells. Also on record: species or system AML cell lines (8); Secondary HTS, 10-point dose-response in triplicate, Cell Titer Glo viability, four-parameter fit EC50. Conditions: Homo sapiens, MOLM-13, 72 h, read-out: MOLM-13.

Molecules are shown by their SMILES.

On to `O=C(O)c1ccc2c(c1)nc(Nc1cccc(Cl)c1)c1ccncc12` [SILMITASERTIB], for which the EC50 in the test with MOLM-13 [1], in the test with ML2, in the test on MV4-11 [2], in the test with CHRF288-11 [3], in the test on CMK and in the test on CMS was over 10 µM each time. Further, the EC50 in the test on M07e and in the test with U937 [4] was over 10 µM throughout.
For `Nc1nc2[nH]cc(CCc3ccc(C(=O)N[C@@H](CCC(=O)O)C(=O)O)cc3)c2c(=O)[nH]1` [PEMETREXED], the EC50 in the test with MOLM-13 [1] is 0.048 µM; with MV4-11 [5], 0.035 µM; with CHRF288-11 [6] it was 0.1 µM; in the test with ML2 it was 0.066 µM; in the test with CMK it was over 10 µM; in the test on CMS it was over 10 µM. Further, the EC50 in the test on M07e and with U937 [4] was over 10 µM in each case.
Turning to `COc1ccc(C[C@@H](C)[C@@H](C)Cc2ccc(OC)c(OC)c2)cc1OC` [TERAMEPROCOL], the EC50 with MOLM-13 [1], with ML2, with U937 [7], with MV4-11 [2], in the test on CHRF288-11 [3] and in the test on CMK was over 10 µM throughout. In addition, the EC50 in the test on CMS and with M07e was over 10 µM each time.
As for `CCC(C)(C)C(=O)O[C@H]1C[C@@H](C)C=C2C=C[C@H](C)[C@H](CC[C@@H]3C[C@@H](O)CC(=O)O3)[C@H]21` [SIMVASTATIN], the EC50 in the test with MOLM-13 [1] was over 10 µM; in the test with CHRF288-11 [6], 4.1 µM; in the test on ML2 it was over 10 µM; in the test on MV4-11 [2], over 10 µM; in the test with CMK, over 10 µM; in the test with CMS, over 10 µM. Also, the EC50 in the test on M07e and in the test with U937 [4] was over 10 µM in each case.
In the case of `O=C(O)C[C@H](O)C[C@H](O)/C=C/c1c(C2CC2)nc2ccccc2c1-c1ccc(F)cc1` [PITAVASTATIN], the EC50 in the test on MOLM-13 [1] was 5.3 µM; with MV4-11 [5] it was 7.6 µM; in the test with CHRF288-11 [6], 2.2 µM; in the test with ML2, 5.1 µM; with U937 [7] it was 8.5 µM; in the test with CMK, over 10 µM. In addition, the EC50 with CMS and in the test with M07e was over 10 µM throughout.
With `Oc1nc(-c2ccc(C(F)(F)F)cc2)nc2c1CSCC2` [XAV939], the EC50 with ML2 is 2.8 µM; with MOLM-13 [8], over 10 µM; in the test with MV4-11 [2] it was over 10 µM; in the test with CHRF288-11 [3] it was over 10 µM; with CMK it was over 10 µM; in the test with CMS, over 10 µM. Also, the EC50 in the test with M07e and in the test on U937 [4] was over 10 µM throughout.
Turning to `O=C(c1cc(Cc2n[nH]c(=O)c3ccccc23)ccc1F)N1CCN(C(=O)C2CC2)CC1` [OLAPARIB], the EC50 in the test on CHRF288-11 [6], with ML2, with MOLM-13 [8], with MV4-11 [2], in the test on CMK and in the test on CMS was over 10 µM each time. The EC50 with M07e and in the test with U937 [4] was over 10 µM each time.
On to `CCOc1cc(C(C)(C)C)ccc1C1=N[C@@](C)(c2ccc(Cl)cc2)[C@@](C)(c2ccc(Cl)cc2)N1C(=O)N1CCN(CCCS(C)(=O)=O)CC1` [RG7112], for which the EC50 with CHRF288-11 [3], with CMK, with CMS and in the test with U937 [4] was over 10 µM in each case.
In the case of `Cc1nc2ccc(CN(C)c3ccc(C(=O)N[C@@H](CCC(=O)O)C(=O)O)s3)cc2c(=O)[nH]1` [RALTITREXED], the EC50 in the test with MOLM-13 [1] was 0.068 µM; in the test with MV4-11 [5], 0.027 µM; with CHRF288-11 [6], 0.095 µM; in the test on ML2, 0.1 µM; in the test on CMK, over 10 µM; in the test with CMS, over 10 µM. Besides, the EC50 with M07e and in the test with U937 [4] was over 10 µM throughout.
`C[C@H]1[C@H](OC(=O)CCC(=O)O)O[C@@H]2O[C@@]3(C)CC[C@H]4[C@H](C)CC[C@@H]1[C@@]24OO3` [Artesunate]: the EC50 in the test on MV4-11 [2] and in the test with CMK was over 10 µM in each case.
As to `CON(C)C(=O)N1N=C(c2cc(F)ccc2F)S[C@@]1(CCCN)c1ccccc1` [ARRY-520], the EC50 in the test with MOLM-13 [8], in the test on MV4-11 [2] and in the test on CMK was over 10 µM each time.
With `O=c1oc2c(O)c(O)cc3c(=O)oc4c(O)c(O)cc1c4c23` [ELLAGIC ACID], the EC50 was 0.8 µM in the test on MOLM-13 [1]; 0.51 µM in the test with ML2; over 10 µM in the test on MV4-11 [2]; over 10 µM in the test on CHRF288-11 [3]; over 10 µM in the test with CMK; over 10 µM in the test on CMS. Also, the EC50 with M07e and with U937 [4] was over 10 µM throughout.
As for `Cc1nc(Nc2ncc(C(=O)Nc3c(C)cccc3Cl)s2)cc(N2CCN(CCO)CC2)n1` [DASATINIB], the EC50 with CHRF288-11 [6] was 8.4 µM; in the test with ML2, over 10 µM; in the test with MOLM-13 [8], over 10 µM; in the test on MV4-11 [2], over 10 µM; in the test with CMK it was over 10 µM; in the test on CMS, over 10 µM. In addition, the EC50 in the test with M07e and with U937 [4] was over 10 µM each time.
As to `CCN1CCN(Cc2ccc(Nc3ncc(F)c(-c4cc(F)c5nc(C)n(C(C)C)c5c4)n3)nc2)CC1` [LY2835219], the EC50 was 1.9 µM in the test on MOLM-13 [1]; 1.9 µM with MV4-11 [5]; 4 µM with ML2; 2 µM with U937 [7]; over 10 µM in the test with CHRF288-11 [3]; over 10 µM with CMK. For the same compound, the EC50 in the test with CMS and in the test with M07e was over 10 µM each time.
For `O=C(NOC[C@H](O)CO)c1ccc(F)c(F)c1Nc1ccc(I)cc1F` [PD-0325901], the EC50 in the test on MOLM-13 [1] is 0.92 µM; with CHRF288-11 [6], over 10 µM; in the test on ML2, 0.001 µM; with MV4-11 [2] it was over 10 µM; in the test on CMK, over 10 µM; in the test on CMS, over 10 µM. Also, the EC50 in the test with M07e and with U937 [4] was over 10 µM each time.
For the compound `O=c1ncccn1[C@@H]1O[C@H](CO)[C@@H](O)[C@H]1O` [ZEBULARINE], the EC50 was 1.1 µM with MOLM-13 [1]; 8.9 µM with CHRF288-11 [6]; 0.73 µM in the test on ML2; over 10 µM in the test with MV4-11 [2]; over 10 µM in the test on CMK; over 10 µM with CMS. Moreover, the EC50 with M07e and with U937 [4] was over 10 µM in each case.
Consider `CNC(=O)c1cc(Oc2ccc(NC(=O)Nc3ccc(Cl)c(C(F)(F)F)c3)cc2)ccn1` [Sorafenib], for which the EC50 was 0.0073 µM in the test with MV4-11 [2]; over 10 µM with CHRF288-11 [3]; over 10 µM in the test on CMK; over 10 µM in the test on CMS; over 10 µM with M07e.
With `CN[C@@H](C)C(=O)N[C@H](C(=O)N1CCC[C@H]1c1nc(C(=O)c2ccc(F)cc2)cs1)C1CCCCC1` [LCL-161], the EC50 was over 10 µM with MOLM-13 [1]; 8.5 µM in the test with CHRF288-11 [6]; 5 µM in the test on ML2; over 10 µM in the test on MV4-11 [2]; over 10 µM in the test with CMK; over 10 µM in the test with CMS. For the same compound, the EC50 in the test with M07e and with U937 [4] was over 10 µM in each case.
Turning to `O=C1c2c(O)ccc(O)c2C(=O)c2c(NCCNCCO)ccc(NCCNCCO)c21` [SJ000285321, MITOXANTHRONE], the EC50 with MOLM-13 [8] came to 0.0081 µM; in the test with CHRF288-11 [3] it was 0.024 µM; in the test with CMK, 0.043 µM; with CMS it was 0.085 µM; in the test on M07e it was 0.033 µM; with U937 [4], 0.026 µM.
